≈ marks a conversion by molar mass, not a printed value. Where a name gives a salt, the structure may show the parent alone. Read-outs that look alike come from different tables or passages of the source.

The nature of data set [1]: Formulation (solubility) screening with cyclodextrins, concentrations achieved. The class given is physicochemical. The settings on record: for SBE-β-CD [CAPTISOL] Formulations (CD Excess), concentration: CD excess: Pazopanib 20 (5x), 50 (2.5x), 80 (2.5x), Sunitinib 2.5x, 4x, Axitinib 6x, Linifanib 8x, Motesanib 2x; for Expected Concentration Achieved: achieved vs expected formulation concentration. The procedure:
For example, solid therapeutic agents are mixed in an aqueous solution with cyclodextrin, buffering agent, and/or other formulation agents of the current invention. The pH of the resulting mixture is adjusted with a base, for example, NaOH, or an acid, for example, citric acid. The mixture is then filtered, and the resulting filtered solution is used to fill the PDS.
A solubility screening of the therapeutic agent of the invention was carried out during the pre-formulation stage. For example, the solubility of the therapeutic agents in acids, cyclodextrin (CD) (e.g., SBEβCD (CAPTISOL®), HPβCD, HPγCD), hydrophilic stabilizing agents (e.g., PVP), and buffering agents (e.g., citric acid, histidine) were explored. Systematic formulation screening may include determination of CD:therapeutic agent ratio, pH, therapeutic agent concentration, and agents.
For example, in the formulation process with complexing agents such as cyclodextrins, a vial of solid therapeutic agent was mixed with a vial containing a solution of CD, acid, and agents in water. The pH of the resulting mixture was adjusted by NaOH. The mixture was then be filtered, and the resulting filtered solution was used to fill the PDS device or used to determine its stability.

A short description of data set [2]: Formulations with amphiphilic agents and non-aqueous solvents (no complexing agent), concentration dissolved. The data set is classed as physicochemical. The conditions noted are these: neat PEG 300.
Data set [3] in a line: Viscosity and water content of cyclodextrin formulations. The settings on record: 80 mg/mL Pazopanib. The class given is physicochemical.
The nature of a further data set: Aqueous solubility. The data set is classed as physicochemical.
The nature of data set [4]: Diffusion coefficient from Release Rate Index and single exponential model, compared with Stokes-Einstein prediction. The settings on record: 21 mg/mL Sunitinib, 2.5:1 molar ratio HPβCD.
Method: The measured diffusion coefficient was compared to the diffusion coefficient predicted (using Stokes-Einstein equation to correct for MW (via volume of diffusing species) and temperature (via temperature dependence of the viscosity of water)) for a molecule of that molecular weight.
The rate was assessed by using the measured Release Rate Index (RRI) and volume for a particular device and using the single exponential diffusion model to determine a measured diffusion coefficient for a particular formulation and device combination. The measured diffusion coefficient was compared to the diffusion coefficient predicted (using Stokes-Einstein equation to correct for MW (via volume of diffusing species) and temperature (via temperature dependence of the viscosity of water)) for a molecule of that molecular weight.

With `Cc1ccc(F)c(NC(=O)Nc2ccc(-c3cccc4[nH]nc(N)c34)cc2)c1` [Linifanib, N-[4-(3-Amino-1H-indazol-4-yl)phenyl]-N′-(2-fluoro-5-methylphenyl)urea], in data set [1], the “SBE-β-CD [CAPTISOL] Formulations (CD Excess), concentration” value amounted to 6 mg/mL and the “Expected Concentration Achieved” value is “No”. For the same compound, the concentration formulated in data set [2] turned out to be 20000 µg/mL.

On to `Cc1ccc(Nc2nccc(N(C)c3ccc4c(C)n(C)nc4c3)n2)cc1S(N)(=O)=O` [Pazopanib, 5-[[4-[(2,3-dimethyl-2H-indazol-6-yl)methylamino]-2-pyrimidinyl]amino]-2-methylbenzenesulfonamide monohydrochloride], for which the viscosity entry in data set [3] (2.2:1 molar ratio CAPTISOL) is reported as “at least 5 centipoise”. Also, the water content result in data set [3] (5:1 CAPTISOL) is “approximately 0.5 g/mL”. Also, the solubility (as a rule, the concentration that dissolves in the medium under given conditions) in the data set “Aqueous solubility” (aqueous solution with 0.1% polysorbate-20, aqueous with cosolvent or surfactant or cyclodextrin) is 0.1 µg/mL. Also, the “solubility in phosphate buffered saline” value in “Aqueous solubility” (neutral pH) was “insoluble”.

`CCN(CC)CCNC(=O)c1c(C)[nH]c(/C=C2\C(=O)Nc3ccc(F)cc32)c1C.O=C(O)CC(O)C(=O)O` [Sunitinib, Butanedioic acid, hydroxy-, (2S)-, compound with N-[2-(diethylamino)ethyl]-5-[(Z)-(5-fluoro-1,2-dihydro-2-oxo-3H-indol-3-ylidine)methyl]-2,4-dimethyl-1H-pyrrole-3-carboxamide (1:1)]: the solubility in “Aqueous solubility” (aqueous solution, pH 4.1, aqueous buffer, read-out: solubility) was greater than 25000 µg/mL. Also, the solubility in the data set “Aqueous solubility” (aqueous solution, pH 7.4, aqueous buffer, read-out: solubility) was found to be 10 µg/mL. For the same compound, in data set [4], the measured diffusion coefficient is 3.3e-7 cm^2/s and the “times lower than the predicted single molecule diffusion coefficient” value is 20 times.

Regarding `CC1(C)CNc2cc(NC(=O)c3cccnc3NCc3ccncc3)ccc21` [Motesanib, N-(2,3-Dihydro-3,3-dimethyl-1H-indol-6-yl)-2-[(4-pyridinylmethyl)amino]-3-pyridinecarboxamide], in data set [1], the “SBE-β-CD [CAPTISOL] Formulations (CD Excess), concentration” value was 30 mg/mL and the “Expected Concentration Achieved” value was “No”.

On to `CNC(=O)c1ccccc1Sc1ccc2c(/C=C/c3ccccn3)n[nH]c2c1` [Axitinib, N-Methyl-2-((3-((1E)-2-(pyridin-2-yl)ethenyl)-1H-indazol-6-yl)sulfanyl)benzamide], for which, in “Aqueous solubility” (PBS, aqueous buffer, read-out: solubility in PBS), the solubility is 0.3 µg/mL (≈ 0.776 µM).

Source of the values: patent US9968603B2, “Systems for sustained intraocular delivery of low solubility compounds from a port delivery system implant” (ForSight Vision4, Inc., priority 2013, dated 2018).
